Values after ≈ are worked out from the molar mass of the structure shown.

This data set can be described thus: Toxicity against brine shrimp. It counts as organism-based. The following applies: artemia, in vivo.

Consider `C=C1C(=O)O[C@H]2[C@H]1CC[C@@]1(C)[C@@H](O)C=C[C@@]3(C)O[C@]231` [RATIBINOLIDE II], for which the LC50 is 69.5 µg/mL (≈ 265 µM).

Broadly, the LC50 is the concentration lethal to half of the exposed cells or organisms. High values mean lower toxicity, low ones greater toxicity.

For the origin of these results see ChEMBL document CHEMBL1158982, “Chemical studies on Mexican plants used in traditional medicine, XXI. Ratibinolide II, a new sesquiterpene lactone from Ratibida latipalearis” (J Nat Prod, 1991).
